Reference: US20250302040A1, “FUNGICIDAL COMBINATIONS OF FLUAZINAM AND USES THEREOF” (priority 2022, published 2025)
In brackets after ≈: the same amount, converted by molar mass.

Assays:
Zymoseptoria tritici = assay: Microtiter plate (MTP) fungal growth assay, optical density, Wadley analysis; assay type: cell-based; details: single active ingredient, OD 590 nm after 5 days at 19° C.
Venturia inaequalis = assay: Apple scab control on apple leaves (incidence), Colby analysis; details: 27 days after application
Experimental: Here, efficacy or percent inhibition is determined in %.
Efficacy of the fungicidal compositions is evaluated with reference to a scale of 0 to 100% in comparison with untreated control plots. 0 means no control and 100 means complete control of the target disease.
The experiments were conducted by applying commercially available formulations of Fluazinam and other mixture partners, alone or with their tank-mixed compositions. The compositions were diluted with water.
Each formulation with active ingredient is diluted with water and biological efficacy trials on target fungi are conducted.

Phytophthora infestans = assay: microbe, parasite or virus in culture; assay type: cell-based
[1] = Fluazinam 350 g/ha, Fluxapyroxad 75 g/ha, mixture 350 + 75 g/ha

SMILES | EC50 observed (Zymoseptoria tritici) [µg/mL] | Observed % control (O) (Venturia inaequalis; [1]) [%] | other results
COc1ccnc(C(=O)N[C@@H](C)C(=O)O[C@@H](C)C(c2ccc(F)cc2)c2ccc(F)cc2)c1OC(C)=O [Florylpicoxamid] | 0.0022 (≈ 0.00429 µM) |  | 
Cn1cc(C(=O)Nc2ccccc2-c2cc(F)c(F)c(F)c2)c(C(F)F)n1 [Fluxapyroxad] |  | 27.50 | Observed % control (O) (Venturia inaequalis; Fluxapyroxad 90 g/ha, mixture 350 + 90 g/ha): 43.80%
Cn1cc(C(=O)Nc2ccccc2Oc2ccc(C(F)(F)F)cc2Cl)c(C(F)F)n1 [Flubeneteram] | 0.1221 (≈ 0.274 µM) |  | 
Cc1ccc(C(=O)OCc2ccc(Oc3ccccc3)cc2)c(N)n1 [Aminopyrifen] | 0.2220 (≈ 0.664 µM) |  | 
Cn1nnnc1/C(=N\OCc1cccc(NC(=O)OC(C)(C)C)n1)c1ccccc1 [Picarbutrazox] |  |  | EC50 observed (Phytophthora infestans; single active ingredient, OD 590 nm after 5 days at 19° C.): 0.0026 µg/mL (≈ 0.00635 µM)
O=[N+]([O-])c1cc(C(F)(F)F)c(Cl)c([N+](=O)[O-])c1Nc1ncc(C(F)(F)F)cc1Cl [Fluazinam] |  | 30.50 | EC50 (Zymoseptoria tritici; Zymoseptoria tritici, 120 h, read-out: EC50 observed): 0.257 µg/mL (≈ 0.552 µM); EC50 (Phytophthora infestans; Phytophthora infestans, 120 h, read-out: EC50 observed): 0.528 µg/mL (≈ 1.14 µM)
